Test results taken from patent publication US20240307550A1, “MODULATION OF CD46 CELL SURFACE MARKER IN BOTH ANDROGEN RECEPTOR-POSITIVE AND NEGATIVE CANCER CELLS” (The Regents of the University of California, priority 2021, published 2024).

Key:
[1] = test system: CD46 cell surface expression, Du145 cells; test: CD46 cell surface expression by flow cytometry, Du145 cells; type: cell-based; details: 7 days; for CD46 cell surface expression (MFI): Du145 cells, 37° C.
Protocol: (§1) Methods: 22Rv1 and Du145 cells were exposed to varying concentrations of the Stat3 inhibitor C188-9 and the glucocorticoid receptor inhibitor mifepristone for 7-10 days at 37° C. in culture media, and cell surface CD46 expression is detected by flow cytometry using the anti-CD46 antibody YS5 followed by AlexaFluo-617 labeled anti-human Fc secondary antibody. MFI (median fluorescence intensity) was recorded and analyzed by Student t-test (for two group comparison) and One-way ANOVA (for group number >2).

[2] = test system: CD46 cell surface expression, 22Rv1 cells; test: CD46 cell surface expression by flow cytometry using YS5, 22Rv1 cells; type: cell-based
Protocol: (§2) AR positive 22Rv1 cells were exposed to enzalutamide (5 μM) and CD46 cell surface expression was measured by flow cytometry using YS5. As a reference, prostate specific membrane antigen (PSMA) was also measured at the same time. […] MFI: median fluorescence intensity. See right portion of FIG. 1.
as §1

[3] = test system: CD46 cell surface antigen density, H660 cells; test: CD46 cell surface antigen density by quantitative flow cytometry, H660 cells; type: cell-based; details: AR-negative neuroendocrine H660 cells, 10 μM abiraterone
Protocol: The neuroendocrine prostate cancer cell line H660, which is AR-negative, was exposed to an ASI (in this case, 10 μM abiraterone), and CD46 cell surface antigen density was measured by quantitative flow cytometry. Over 2-fold increase of CD46 antigen density was found following ASI treatment.

LNCaP-C4-2B xenografts = type: in vivo; details: mice with subcu LNCaP-C4-2B xenografts; 50 mg/kg daily for 4 weeks from day 10; single iv 3 mg/kg CD46 ADC on Day-14; 69 days
Protocol: An in vivo tumor implantation mouse model was studied to measure the effect of pre-treatment with enzalutamide followed by andi-CD46 ADC treatment. LNCaP-C4-2B cells were implanted in mice subcu on Day-0. Starting on day 10, the mice were administered with 50 mg/kg, daily, for 4 weeks. […] FIG. 7 depicts the survival rate of the mice.

[4] = test system: CD46 cell surface expression, VCaP cells; test: CD46 cell surface expression by flow cytometry using YS5, VCaP cells; type: cell-based; details: AR positive VCaP cells, enzalutamide 5 μM, versus control cells
Protocol: AR positive VCaP cells were exposed to enzalutamide (5 μM) and CD46 cell surface expression was measured by flow cytometry using the YS5 antibody. MFI: median fluorescence intensity.

[5] = test system: CD46 antigen density, LNCaP-C4-2B cells; test: CD46 antigen density by quantitative flow cytometry, LNCaP-C4-2B cells; type: cell-based; details: 10 μM, 7 days
Text: CD46 antigen density was *p<0.05; **p<0.01 (p=0.0091), Student's test, duplicates.

[6] = test system: prostate specific membrane antigen (PSMA), 22Rv1 cells; test: PSMA measured as reference by flow cytometry, 22Rv1 cells; type: cell-based; details: AR positive 22Rv1 cells, enzalutamide 5 μM
Protocol: as §2

[7] = molecular target: T1, CD46 on the surface of prostate cancer cells (human, UniProt P15529 35-392); test: cell-based or functional assay
T1 sequence (looked up): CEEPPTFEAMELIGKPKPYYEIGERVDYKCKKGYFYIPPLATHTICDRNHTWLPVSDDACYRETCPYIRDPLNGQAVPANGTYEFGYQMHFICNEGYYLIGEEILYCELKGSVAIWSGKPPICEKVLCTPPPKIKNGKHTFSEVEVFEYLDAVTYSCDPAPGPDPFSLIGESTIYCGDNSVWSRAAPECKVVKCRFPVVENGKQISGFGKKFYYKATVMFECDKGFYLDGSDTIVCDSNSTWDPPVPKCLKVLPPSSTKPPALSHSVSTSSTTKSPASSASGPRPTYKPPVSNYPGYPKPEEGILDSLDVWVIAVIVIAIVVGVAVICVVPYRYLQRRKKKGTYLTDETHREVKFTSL

[8] = molecular target: T1, CD46 on the surface of prostate cancer …; test: flow cytometry on VCaP and 22Rv1 cells (figure legend)
Protocol: AR positive VCaP cells were exposed to enzalutamide (5 μM) and CD46 cell surface expression was measured by flow cytometry using the YS5 antibody. MFI: median fluorescence intensity. […] AR positive 22Rv1 cells were exposed to enzalutamide (5 μM) and CD46 cell surface expression was measured by flow cytometry using YS5. As a reference, prostate specific membrane antigen (PSMA) was also measured at the same time. Enzalutamide-induced upregulation was unique to CD46 but not PSMA. MFI: median fluorescence intensity. See right portion of FIG. 1.
AR positive 22Rv1 cells were exposed to enzalutamide (5 μM) and CD46 cell surface expression was measured by flow cytometry using YS5. As a reference, prostate specific membrane antigen (PSMA) was also measured at the same time. Enzalutamide-induced upregulation was unique to CD46 but not PSMA. MFI: median fluorescence intensity. See right portion of FIG. 1.

COc1ccc(S(=O)(=O)Nc2cc(-c3c(O)ccc4ccccc34)c(O)c3ccccc23)cc1 [C188-9, N-(1′, 2-Dihydroxy-1,2′-binaphthalen-4′-yl)-4-methoxybenzenesulfonamide]
CD46 cell surface expression (MFI) ([1]; C188-9 10, 20 and 50 μM): inhibits CD46 cell surface presentation
CD46 cell surface expression (MFI) ([2]; 22Rv1 cells, C188-9 low/mid concentrations (2.5 and 5 μM), 37° C., 10 days): stimulates CD46 cell surface presentation
CD46 cell surface presentation (MFI) ([2]; prostate cancer cells (22Rv1, 10 μM, 10 days, single experiment, FIG. 12; Du145, FIG. 13), C188-9 high concentrations (>10 μM)): inhibits

C[C@]12CC[C@H](O)CC1=CC[C@@H]1[C@@H]2CC[C@]2(C)C(c3cccnc3)=CC[C@@H]12 [abiraterone]
increase of CD46 antigen density [3]: Over 2 fold

CNC(=O)c1ccc(N2C(=S)N(c3ccc(C#N)c(C(F)(F)F)c3)C(=O)C2(C)C)cc1F [enzalutamide]
tumor response / overall survival (Kaplan-Meier) (LNCaP-C4-2B xenografts): resistant to enz treatment alone
CD46 cell surface expression (MFI) [4]: significantly more CD46 expression than control cells
CD46 cell surface expression ([1]; AR-null Du145 cells, enzalutamide 5 μM, p<0.0001, n=4): increase significantly
CD46 antigen density [5]: increased
PSMA expression (MFI) [6]: not PSMA
CD46 cell surface expression (MFI) ([2]; AR positive 22Rv1 cells, enzalutamide 5 μM): upregulation was unique to CD46

CC#C[C@]1(O)CC[C@H]2[C@@H]3CCC4=CC(=O)CCC4=C3[C@@H](c3ccc(N(C)C)cc3)C[C@@]21C [mifepristone]
CD46 cell surface expression (MFI) ([1]; mifepristone high concentrations (20 and 50 PM)): inhibits CD46 cell surface presentation
CD46 cell surface expression (MFI) ([2]; 22Rv1 cells, mifepristone 2.5 μM, 37° C., 10 days, Student t test): not significant

B1: CD46 ADC (YS5-MC-vc-PAB-MMAF) (antibody, human IgG1, lambda, V domains shown)
VH: QVQLVQSGGGVVQPGRSLRLACAASGLTVNNYAMHWVRQAPGKGLEWVAVISYDGNNKYYADSVKGRFTISRDNSKNTLYLQMNSLRAEDTAVYYCAKGGGYFDLWGRGTLVTVSS
VL: QSVLTQPPSVSGAPGQRVTISCTGSSSNIGAGYDVHWYQQLPGTAPKLLIYGNNNRPSGVPDRFSGSKSGTSASLAITGLQAEDEADYYCSSYTSGTWLFGGGTKLTVLG
modifications: MC-vc-PAB-MMAF drug-linker conjugated; sites and drug to antibody ratio not stated for this conjugate
EC50 of cell killing, LNCaP-C4-2B cells pre-exposed to abiraterone against cells not pre-exposed [7]: 17 fold

B2: YS5 anti-CD46 antibody (antibody, human IgG1, lambda, V domains shown)
VH: B1 VH
VL: B1 VL
notes: also called YS5FL; anti-CD46 antibody YS5
binding result [8]: binds
